From ChEMBL document CHEMBL3217438, “Diphenylbutylpiperidine-based cell autophagy inducers: Design, synthesis and SAR studies” (Medchemcomm, 2011)

Experiment: Induction of autophagy in human H4-LC3 cells assessed as number of spots of LC3-GFP after 4 hrs by DAPI staining
Type: functional, cell-based

O=c1oc2ccccc2n1C1CCN(CCCC(c2ccc(F)cc2)c2ccc(F)cc2)CC1
EC50: 8.2 µM

O=c1sc2ccccc2n1C1CCN(CCCC(c2ccc(F)cc2)c2ccc(F)cc2)CC1
EC50: > 50 µM

Fc1ccc(C(CCCN2CCC(n3cnc4ccccc43)CC2)c2ccc(F)cc2)cc1
EC50: 4.2 µM

O=[N+]([O-])c1ccc2c(cnn2C2CCN(CCCC(c3ccc(F)cc3)c3ccc(F)cc3)CC2)c1
EC50: 4.5 µM

Fc1ccc(C(CCCN2CCC(n3nnc4ccccc43)CC2)c2ccc(F)cc2)cc1
EC50: > 50 µM

Fc1ccc(C(CCCN2CCC(N3CCc4ccccc43)CC2)c2ccc(F)cc2)cc1
EC50: 3.8 µM

Fc1ccc(C(CCCN2CCC(c3c[nH]c4ccccc34)CC2)c2ccc(F)cc2)cc1
EC50: 6.4 µM

Fc1ccc(C(CCCN2CCC(N3Cc4ccccc4C3)CC2)c2ccc(F)cc2)cc1
EC50: 4.1 µM

O=C1c2ccccc2C(=O)N1C1CCN(CCCC(c2ccc(F)cc2)c2ccc(F)cc2)CC1
EC50: > 50 µM

Fc1ccc(C(CCCN2CCC(n3nc4ccccc4n3)CC2)c2ccc(F)cc2)cc1
EC50: > 50 µM

Fc1ccc(C(CCCN2CCC(c3nc4ccccc4[nH]3)CC2)c2ccc(F)cc2)cc1
EC50: 4 µM

Fc1ccc(C(CCCN2CCC(c3nc4ccccc4o3)CC2)c2ccc(F)cc2)cc1
EC50: 11.2 µM

Fc1ccc(C(CCCN2CCC(c3nc4ccccc4s3)CC2)c2ccc(F)cc2)cc1
EC50: 10.6 µM

O=C1NCc2ccccc2N1C1CCN(CCCC(c2ccc(F)cc2)c2ccc(F)cc2)CC1
EC50: 2.9 µM

O=S1(=O)NCc2ccccc2N1C1CCN(CCCC(c2ccc(F)cc2)c2ccc(F)cc2)CC1
EC50: 10.2 µM

Fc1ccc(C(CCCN2CCC(N3CCc4ccccc4C3)CC2)c2ccc(F)cc2)cc1
EC50: 6 µM

O=C1Oc2ccccc2CN1C1CCN(CCCC(c2ccc(F)cc2)c2ccc(F)cc2)CC1
EC50: 4.1 µM

O=C1Nc2ccccc2CN1C1CCN(CCCC(c2ccc(F)cc2)c2ccc(F)cc2)CC1
EC50: 1.3 µM

O=S1(=O)Nc2ccccc2CN1C1CCN(CCCC(c2ccc(F)cc2)c2ccc(F)cc2)CC1
EC50: 21.7 µM

O=c1c2ccccc2nnn1C1CCN(CCCC(c2ccc(F)cc2)c2ccc(F)cc2)CC1
EC50: 7.8 µM

O=c1[nH]c2ccccc2c(=O)n1C1CCN(CCCC(c2ccc(F)cc2)c2ccc(F)cc2)CC1
EC50: 2.8 µM

FC(F)(F)c1ccc(C(CCCN2CCC(N3CCc4ccccc43)CC2)c2ccc(C(F)(F)F)cc2)cc1
EC50: 1.2 µM

FC(F)(F)c1ccc(C(CCCN2CCC(c3c[nH]c4ccccc34)CC2)c2ccc(C(F)(F)F)cc2)cc1
EC50: 0.45 µM

FC(F)(F)c1ccc(C(CCCN2CCC(N3Cc4ccccc4C3)CC2)c2ccc(C(F)(F)F)cc2)cc1
EC50: 1.5 µM

FC(F)(F)c1ccc(C(CCCN2CCC(c3nc4ccccc4[nH]3)CC2)c2ccc(C(F)(F)F)cc2)cc1
EC50: 0.9 µM

N#CC(CCCN1CCC(N2CCc3ccccc32)CC1)(c1ccccc1)c1ccccc1
EC50: 4.5 µM

N#CC(CCCN1CCC(c2c[nH]c3ccccc23)CC1)(c1ccccc1)c1ccccc1
EC50: 2.6 µM

N#CC(CCCN1CCC(N2Cc3ccccc3C2)CC1)(c1ccccc1)c1ccccc1
EC50: 7.1 µM

N#CC(CCCN1CCC(c2nc3ccccc3[nH]2)CC1)(c1ccccc1)c1ccccc1
EC50: 8.5 µM

Fc1ccc(C(CCCN2CCN(c3nsc4ccccc34)CC2)c2ccc(F)cc2)cc1
EC50: 10.1 µM

O=C1NC2(CCN(CCCC(c3ccc(F)cc3)c3ccc(F)cc3)CC2)Nc2ccccc21
EC50: 1.9 µM

Fc1ccc(C(CCCN2CCC(c3noc4cc(F)ccc34)CC2)c2ccc(F)cc2)cc1
EC50: > 50 µM

O=c1[nH]c2ccccc2n1C1CCN(CCCC(c2ccc(F)cc2)c2ccc(F)cc2)CC1 [PIMOZIDE]
EC50: 5.4 µM
